Laboratory results as given in ChEMBL document CHEMBL2010733, “Amphilectane diterpenes from Salvia sclarea: biosynthetic considerations” (J Nat Prod, 2012).
The source made the active and inactive calls. The calls are words filed in the database; no cut-off is given here.

Test system: Radical scavenging activity
Test: Antioxidant activity assessed as DPPH radical scavenging activity
Type: functional

SMILES	Activity
CC(C)=C[C@H]1C=C(C)[C@H]2CC[C@H](C)[C@@H]3CC=C(C)[C@@H]1[C@@H]32 (relative stereo)	inactive
CC(C)=C[C@H]1C=C(C)[C@@H]2CC[C@H](C)[C@@]23CCC(C)=C[C@@H]13 (relative stereo)	inactive
